From patent publication US6461833B1, “Method to detect bacteria” (priority 1995, dated 2002) come the findings set out here.

In assay [1] the test system is BCG. The class given is cell-based, M. tuberculosis. Particulars: for number of plaques observed: 72 hours incubation with drug, M. tuberculosis.
The subject of assay [2] is Mycobacterium smegmatis. The class given is cell-based. As to conditions: for number of plaques observed: 72 hours incubation with drug, M. smegmatis.
The mark [3] stands for this setting: Isoniazid concentration 0.1 μg/ml.
Where [4] appears, read: Isoniazid concentration 1.0 μg/ml.
Where [5] appears, read: Isoniazid concentration 10 μg/ml.
[6] abbreviates: Rifampicin concentration 10 μg/ml.
Where [7] appears, read: Rifampicin concentration 50 μg/ml.
[8] abbreviates: Rifampicin concentration 100 μg/ml.

Where two headings read alike, the source gives them in different places.

For the compound `NNC(=O)c1ccncc1` [Isoniazid, isoniazid], the “number of plaques observed” value is reported as 122 in assay [1] (setting [3]); 40 in assay [1] (setting [4]); 2 in assay [1] (setting [5]); “++” in assay [2] (setting [3]); “++” in assay [2] (setting [4]); “+” in assay [2] (setting [5]). The “change in numbers of plaques” value in assay [1] (higher concentrations of isoniazid) was “marked reduction in the numbers of plaques”. Moreover, the “effect on cells judged from number of plaques versus no drug controls” value in assay [1] (lowest concentration of isoniazid) is reported as “unaffected”. In assay [2] (isoniazid, all concentrations, only a slight reduction at the highest concentration), the “effect on cells judged from numbers of plaques” value is reported as “mostly unaffected”.
Turning to `CO[C@H]1/C=C/O[C@@]2(C)Oc3c(C)c(O)c4c(O)c(c(/C=N/N5CCN(C)CC5)c(O)c4c3C2=O)NC(=O)/C(C)=C\C=C\[C@H](C)[C@H](O)[C@@H](C)[C@@H](O)[C@@H](C)[C@H](OC(C)=O)[C@@H]1C` [Rifampicin, rifampicin], the “number of plaques observed” value in assay [1] (setting [6]) is reported as 4; in assay [1] (setting [7]), 4; in assay [1] (setting [8]), 10; in assay [2] (setting [6]), “++”; in assay [2] (setting [7]) it was 50; in assay [2] (setting [8]), 8.
